What was measured:
[1] = tested on: M14; assay: NCI one-dose screen; format: cell-based; details: Homo sapiens; M14, 10 µM; read-out: Growth Percent
How it was run: (§1)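 Growth percent read-out. One-concentration exposure (10 µM) across the standard NCI-60 human cell line panel, here 59 lines.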

[2] = tested on: SK-MEL-2; assay: NCI one-dose screen; format: cell-based; details: Homo sapiens; SK-MEL-2, 10 µM; read-out: Growth Percent
How it was run: as §1

[3] = tested on: OVCAR-5; assay: NCI one-dose screen; format: cell-based; details: Homo sapiens; OVCAR-5, 10 µM; read-out: Growth Percent
How it was run: as §1

[4] = tested on: CAKI-1; assay: NCI one-dose screen; format: cell-based; details: Homo sapiens; CAKI-1, 10 µM; read-out: Growth Percent
How it was run: as §1

[5] = tested on: MOLT-4; assay: NCI one-dose screen; format: cell-based; details: Homo sapiens; MOLT-4, 10 µM; read-out: Growth Percent
How it was run: as §1

[6] = tested on: SK-MEL-28; assay: NCI one-dose screen; format: cell-based; details: Homo sapiens; SK-MEL-28, 10 µM; read-out: Growth Percent
How it was run: as §1

[7] = tested on: K-562; assay: NCI one-dose screen; format: cell-based; details: Homo sapiens, K562; K-562, 10 µM; read-out: Growth Percent
How it was run: as §1

[8] = tested on: UO-31; assay: NCI one-dose screen; format: cell-based; details: Homo sapiens; UO-31, 10 µM; read-out: Growth Percent
How it was run: as §1

[9] = tested on: NCI/ADR-RES; assay: NCI one-dose screen; format: cell-based; details: Homo sapiens, read-out: Growth Percent
How it was run: as §1

[10] = tested on: HOP-92; assay: NCI one-dose screen; format: cell-based; details: Homo sapiens; HOP-92, 10 µM; read-out: Growth Percent
How it was run: as §1

[11] = tested on: EKVX; assay: NCI one-dose screen; format: cell-based; details: Homo sapiens, read-out: Growth Percent
How it was run: as §1

[12] = tested on: A498; assay: NCI one-dose screen; format: cell-based; details: Homo sapiens; A498, 10 µM; read-out: Growth Percent
How it was run: as §1

[13] = tested on: T-47D; assay: NCI one-dose screen; format: cell-based; details: Homo sapiens, T47D, read-out: Growth Percent
How it was run: as §1

[14] = tested on: BT-549; assay: NCI one-dose screen; format: cell-based; details: Homo sapiens; BT-549, 10 µM; read-out: Growth Percent
How it was run: as §1

[15] = tested on: NCI-H23; assay: NCI one-dose screen; format: cell-based; details: Homo sapiens; NCI-H23, 10 µM; read-out: Growth Percent
How it was run: as §1

[16] = tested on: SF-539; assay: NCI one-dose screen; format: cell-based; details: Homo sapiens; SF-539, 10 µM; read-out: Growth Percent
How it was run: as §1

[17] = tested on: MDA-MB-231/ATCC; assay: NCI one-dose screen; format: cell-based; details: Homo sapiens, read-out: Growth Percent
How it was run: as §1

[18] = tested on: U251; assay: NCI one-dose screen; format: cell-based; details: Homo sapiens, U-251; U251, 10 µM; read-out: Growth Percent
How it was run: as §1

[19] = tested on: HCT-15; assay: NCI one-dose screen; format: cell-based; details: Homo sapiens; HCT-15, 10 µM; read-out: Growth Percent
How it was run: as §1

[20] = tested on: MCF7; assay: NCI one-dose screen; format: cell-based; details: Homo sapiens; MCF7, 10 µM; read-out: Growth Percent
How it was run: as §1

[21] = tested on: HS 578T; assay: NCI one-dose screen; format: cell-based; details: Homo sapiens, read-out: Growth Percent
How it was run: as §1

[22] = tested on: COLO 205; assay: NCI one-dose screen; format: cell-based; details: Homo sapiens; COLO 205, 10 µM; read-out: Growth Percent
How it was run: as §1

[23] = tested on: SF-268; assay: NCI one-dose screen; format: cell-based; details: Homo sapiens; SF-268, 10 µM; read-out: Growth Percent
How it was run: as §1

[24] = tested on: KM12; assay: NCI one-dose screen; format: cell-based; details: Homo sapiens; KM12, 10 µM; read-out: Growth Percent
How it was run: as §1

[25] = tested on: MALME-3M; assay: NCI one-dose screen; format: cell-based; details: Homo sapiens, read-out: Growth Percent
How it was run: as §1

[26] = tested on: SF-295; assay: NCI one-dose screen; format: cell-based; details: Homo sapiens; SF-295, 10 µM; read-out: Growth Percent
How it was run: as §1

[27] = tested on: OVCAR-3; assay: NCI one-dose screen; format: cell-based; details: Homo sapiens; OVCAR-3, 10 µM; read-out: Growth Percent
How it was run: as §1

[28] = tested on: HL-60(TB); assay: NCI one-dose screen; format: cell-based; details: Homo sapiens, read-out: Growth Percent
[29] = tested on: HCT116 cells; assay: Analysis of cell cycle distribution; format: cell-based, human; details: HCT116, different concentrations, 24 h
Excerpt: Generally, the mammalian cells counteract the DNA damage by different mechanisms including the cell cycle arrest to allow the cell to repair the damage. There are 2 checkpoints that control DNA damage. The first checkpoint is at the G1/S transition while the other checkpoint is at the G2/M transition. To cover the mechanisms of the synthesised compounds in inhibiting cell proliferation, we analysed the distribution of cell cycle of HCT116 cells following the treatment with different doses of 4a, 4b, 4e, 4i, and 4j. […] See Supplementary Appendix A.

Row | Compound | activity at 10 µM [1] | activity at 10 µM [2] | activity at 10 µM [3] | activity at 10 µM [4] | activity at 10 µM [5] | activity at 10 µM [6] | activity at 10 µM [7] | activity at 10 µM [8] | activity at 10 µM [9] | activity at 10 µM [10] | activity at 10 µM [11] | activity at 10 µM [12] | activity at 10 µM [13] | activity at 10 µM [14] | activity at 10 µM [15] | activity at 10 µM [16] | activity at 10 µM [17] | activity at 10 µM [18] | activity at 10 µM [19] | activity at 10 µM [20] | further results
1 | O=C(/C=C/c1cccc(Cl)c1)c1ccc(-n2cc(CN3CCN(c4cc5c(cc4F)c(=O)c(C(=O)O)cn5C4CC4)CC3)nn2)cc1 [Compound 4b, (E)-7-(4-((1–(4-(3-(3-chlorophenyl)acryloyl)phenyl)-1H-1,2,3-triazol-4-yl)methyl)piperazin-1-yl)-1-cyclopropyl-6-fluoro-4-oxo-1,4-dihydroquinoline-3-carboxylic acid] | 79% | 93% | 84.7% | 52.5% | 68.2% | 95.8% | 40.5% | 52.6% | 94.2% | 79.3% | 85% | 70.8% | 75.3% | 90.4% | 91.4% | 60.1% | 73.6% | 34.3% | 71.7% | 37.6% | activity at 10 µM [21]: 73.7%; activity at 10 µM [22]: 106%; activity at 10 µM [23]: 56.4%; activity at 10 µM [24]: 29.9%; activity at 10 µM [25]: 94.5%; activity at 10 µM [26]: 80.2%; activity at 10 µM [27]: 57.3%; activity at 10 µM [28]: 90.3%; cell cycle distribution [29]: induced G2/M phase cell cycle arrest in a concentration-dependent manner
2 | COc1cc(/C=C/C(=O)c2ccc(-n3cc(CN4CCN(c5cc6c(cc5F)c(=O)c(C(=O)O)cn6C5CC5)CC4)nn3)cc2)cc(OC)c1OC [Compound 4j, (E)-1-cyclopropyl-6-fluoro-4-oxo-7–(4-((1–(4-(3-(3,4,5-trimethoxyphenyl)acryloyl)phenyl)-1H-1,2,3-triazol-4-yl)methyl)piperazin-1-yl)-1,4-dihydroquinoline-3-carboxylic acid] | 28.2% | 97.4% | 72.3% | 60% | 10.5% | 34.6% | 7.81% | 43.5% | 82% | 81.6% | 80% | 54.4% | 28.1% | 51% | 50.6% | 7.09% | 55.4% | 10.6% | 33.8% | 16.1% | activity at 10 µM [21]: 21.5%; activity at 10 µM [22]: 60.9%; activity at 10 µM [23]: 59.5%; activity at 10 µM [24]: 8.81%; activity at 10 µM [25]: 57.5%; activity at 10 µM [26]: 67.5%; activity at 10 µM [27]: -16.1%; activity at 10 µM [28]: 45%; cell cycle distribution [29]: induced G2/M phase cell cycle arrest in a concentration-dependent manner
3 | COc1ccc(/C=C/C(=O)c2ccc(-n3cc(CN4CCN(c5cc6c(cc5F)c(=O)c(C(=O)O)cn6C5CC5)CC4)nn3)cc2)cc1OC [Compound 4i, (E)-1-cyclopropyl-7-(4-((1-(4-(3–(3,4-dimethoxyphenyl)acryloyl)phenyl)-1H-1,2,3-triazol-4-yl)methyl)piperazin-1-yl)-6-fluoro-4-oxo-1,4-dihydroquinoline-3-carboxylic acid] | 59% | 97% | 92.1% | 67.8% | 64.2% | 79.8% | 42.5% | 54.9% | 90.7% | 66.5% | 96.6% | 68.2% | 78.6% | 65.8% | 78.7% | 50.8% | 67.2% | 41.4% | 80.6% | 13.2% | activity at 10 µM [21]: 52.8%; activity at 10 µM [22]: 98.2%; activity at 10 µM [23]: 56%; activity at 10 µM [24]: 42.6%; activity at 10 µM [25]: 66.2%; activity at 10 µM [26]: 94.9%; activity at 10 µM [27]: 39.3%; activity at 10 µM [28]: 85.9%; cell cycle distribution [29]: induced G2/M phase cell cycle arrest in a concentration-dependent manner
4 | COc1ccc(/C=C/C(=O)c2ccc(-n3cc(CN4CCN(c5cc6c(cc5F)c(=O)c(C(=O)O)cn6C5CC5)CC4)nn3)cc2)cc1 [Compound 4g, (E)-1-Cyclopropyl-6-fluoro-7-(4-((1-(4-(3-(4-methoxyphenyl)acryloyl)phenyl)-1H-1,2,3-triazol-4-yl)methyl)piperazin-1-yl)-4-oxo-1,4-dihydroquinoline-3-carboxylic acid] | 88.7% | 99.1% | 100% | 75.5% | 81.7% | 85.3% | 67.5% | 65.1% | 94.8% | 84.8% | 96.6% | 60.5% | 93.4% | 90% | 85.4% | 92.8% | 88.1% | 68.6% | 95.8% | 51.2% | activity at 10 µM [21]: 65.3%; activity at 10 µM [22]: 97.1%; activity at 10 µM [23]: 77.3%; activity at 10 µM [24]: 86.4%; activity at 10 µM [25]: 84.8%; activity at 10 µM [26]: 90.7%; activity at 10 µM [27]: 90.5%; activity at 10 µM [28]: 99%
5 | O=C(/C=C/c1ccc(Cl)cc1)c1ccc(-n2cc(CN3CCN(c4cc5c(cc4F)c(=O)c(C(=O)O)cn5C4CC4)CC3)nn2)cc1 [Compound 4c, (E)-7-(4-((1-(4-(3-(4-chlorophenyl)acryloyl)phenyl)-1H-1,2,3-triazol-4-yl)methyl)piperazin-1-yl)-1-cyclopropyl-6-fluoro-4-oxo-1,4-dihydroquinoline-3-carboxylic acid] | 84.4% | 96.8% | 92.2% | 61.4% | 84.1% | 88.2% | 56% | 62.5% | 87% | 79.6% | 94% | 52.2% | 92.9% | 76.7% | 79.7% | 69% | 89.4% | 42.1% | 91.6% | 58.2% | activity at 10 µM [21]: 67.4%; activity at 10 µM [22]: 108%; activity at 10 µM [23]: 70.4%; activity at 10 µM [24]: 73.7%; activity at 10 µM [25]: 91.2%; activity at 10 µM [26]: 91.7%; activity at 10 µM [27]: 91.5%; activity at 10 µM [28]: 99.1%

Reference: publication PMC9116245, “New 1,2,3-triazole linked ciprofloxacin-chalcones induce DNA damage by inhibiting human topoisomerase I& II and tubulin polymerization” (Journal of Enzyme Inhibition and Medicinal Chemistry, 2022)
